Target: Glucagon-like peptide 1 receptor (Homo sapiens, UniProt P43220)
Test: GLP-1R agonist cAMP stimulation Assay
Text: cAMP Detection Kit, Cisbio (Cat #62AM4PEJ).

Sequence of Glucagon-like peptide 1 receptor (P43220 whole entry): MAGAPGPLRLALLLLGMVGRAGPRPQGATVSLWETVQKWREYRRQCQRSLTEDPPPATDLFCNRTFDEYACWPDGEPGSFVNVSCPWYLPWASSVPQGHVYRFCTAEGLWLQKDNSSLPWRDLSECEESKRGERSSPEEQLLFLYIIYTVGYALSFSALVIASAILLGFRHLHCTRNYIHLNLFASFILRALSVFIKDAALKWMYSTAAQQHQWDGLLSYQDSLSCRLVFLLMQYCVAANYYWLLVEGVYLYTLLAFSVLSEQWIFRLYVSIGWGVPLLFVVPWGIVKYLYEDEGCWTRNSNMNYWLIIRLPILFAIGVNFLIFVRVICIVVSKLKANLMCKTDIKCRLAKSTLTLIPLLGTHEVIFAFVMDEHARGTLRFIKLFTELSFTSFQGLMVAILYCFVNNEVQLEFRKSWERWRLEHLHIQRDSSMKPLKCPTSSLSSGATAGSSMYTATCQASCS

## Cc1coc2c(COc3cccc(C4=CCN(Cc5nc6cc(C(=O)Nc7cc(F)c8c(c7)C7(CC7)C(=O)N8)ccc6n5C[C@@H]5CCO5)CC4)n3)ccc(C#N)c12 [US20230271949, Example 351]
  EC50: 190 pM

— BindingDB's records for patent US20230271949 (Ascletis Bioscience, 2023)
